Consider five molecules from patent publication US6489098B1, “Means and methods for monitoring nucleoside reverse transcriptase inhibitor antiretroviral therapy and guiding therapeutic decisions in the treatment of HIV/AIDS” (ViroLogic, Inc., priority 1998, dated 2002).

The subject of assay [1] is HIV with multi-nucleoside resistance complex (A62V, V75I, F77L, Y116F and Q115M). The conditions noted are these: cited from earlier work.
The subject of assay [2] is HIV-1 RT mutant resistance test vector V75V. The assay can be described thus: Phenotypic susceptibility assay, site directed RTV V75V. The class given is cell-based. The conditions noted are these: for effect on susceptibility (words): RTV with V75V. The protocol: (§1) Resistance tests were carried out with resistance test vectors using two host cell types. Resistance test vector viral particles were produced by a first host cell (the resistance test vector host cell) that was prepared by transfecting a packaging host cell with the resistance test vector and the packaging expression vector. The resistance test vector viral particles were then used to infect a second host cell (the target host cell) in which the expression of the indicator gene is measured.
(§2) The resistance test vectors containing a functional luciferase gene cassette were constructed and host cells were transfected with the resistance test vector DNA. The resistant test vectors contained patient-derived reverse transcriptase and protease sequences that were either susceptible or resistant to the antiretroviral agents, such as nucleoside reverse transcriptase inhibitors, non-nucleoside reverse transcriptase inhibitors and protease inhibitors. The resistance test vector viral particles produced by transfecting the resistance test vector DNA into host cells, either in the presence or absence of protease inhibitors, were used to infect target host cells grown either in the absence of NRTI or NNRTI or In the presence of increasing concentrations of the drug. […] The IC50 values were determined by plotting percent drug inhibition vs. log 10 drug concentration.
(§3) Host cells were seeded in 10-cm-diameter dishes and were transfected several days after plating with resistance test vector plasmid DNA and the envelope expression vector. […] HIV capsid protein (p24) levels in the harvested cell culture media were determined by an EIA method as described by the manufacturer (SIAC; Frederick, Md.). […] The inhibitory effect of the drug was determined using the following equation: […]
(§4) Genotypic changes that are observed to correlate with changes in phenotypic patterns of drug susceptibility are evaluated by construction of resistance test vectors containing the specific mutation on a defined, wild-type (drug susceptible) genetic background. […]

The subject of assay [3] is HIV-1 RT mutant resistance test vector V75I. Nature of the assay: Phenotypic susceptibility assay, site directed RTV V75I. The class given is cell-based. Particulars: RTV with V75I vs wild type RTV. The protocol: as §1, §2, §3, §4
The subject of assay [4] is resistance test vectors containing five (M41L, D67N, K70R, T215Y, K219Q) or six (M41L, D67N, K70R, L210W, T215Y, K219Q) AZT resistance associated mutations. Nature of the assay: Phenotypic susceptibility assay, site directed RTVs with five or six AZT resistance associated mutations. The class given is cell-based, HIV-1. The protocol:
as §1
(§5) The resistance test vectors containing a functional luciferase gene cassette were constructed and host cells were transfected with the resistance test vector DNA. […] The IC50 values were determined by plotting percent drug inhibition vs. log 10 drug concentration.
as §3

The test system of assay [5] is HIV-1 RT mutant resistance test vector T69SSA and V75I. Nature of the assay: Phenotypic susceptibility assay, site directed RTV T69SSA+V75I. The class given is cell-based. The conditions noted are these: V75I added onto the T69SSA background. The protocol: as §1, §5, §3
The test system of assay [6] is HIV with multiple ZDV resistance mutations. The conditions noted are these: read-out: IC50 (high-level resistance); cited from earlier work.
Assay [7] deals with HIV-1 RT mutant resistance test vector A62V+V75I. The assay can be described thus: Phenotypic susceptibility assay, site directed RTV A62V+V75I. The class given is cell-based. Particulars: RTV with A62V+V75I. The protocol: as §1, §5, §3
Assay [8] has as its system ZDV-resistant HIV isolates. The conditions noted are these: cited from earlier work.
Assay [9] has as its system RTV clone 285-1 (T69SSA) versus revertant 285-1 (SSA69T). The assay can be described thus: Phenotypic susceptibility assay, patient 285 clone and T69SSA revertant. The class given is cell-based, HIV-1. The conditions noted are these: T69SSA→SSA69T in a clone of a patient's virus.
Assay [10] relates to HIV with RT Leu74→Val mutation. The conditions noted are these: cited from earlier work.
Assay [11] deals with HIV with RT Lys65→Arg mutation. Particulars: Lys65→Arg (K65R); cited from earlier work.
In a further assay the test system is HIV clinical isolates. The conditions noted are these: cited from earlier work.

Structures are written as SMILES. Entries after “also recorded” stand apart in the source; their conditions may differ.

For the molecule `Nc1nc(NC2CC2)c2ncn([C@H]3C=C[C@@H](CO)C3)c2n1` [ABC, abacavir], in [1] (A62V, V75I, F77L, Y116F and Q115M), the “fold reduction in susceptibility” value was 17 fold.

The IC50 is the point on the concentration scale where inhibition reaches its midpoint. Take `Cc1cn([C@H]2C[C@H](N=[N+]=[N-])[C@@H](CO)O2)c(=O)[nH]c1=O` [AZT, zidovudine]: the “effect on susceptibility (words)” value was “increased AZT susceptibility slightly” in [2]; “increase in the susceptibility to AZT; also recorded: increased AZT susceptibility; also recorded: increased AZT susceptibility slightly” in assay [3]; “reduced susceptibility to d4T and AZT” in assay [4]; “increased susceptibility to AZT” in assay [5]; “slight increases in susceptibility to AZT; also recorded: did not alter the reduced level of AZT susceptibility caused by the V75I mutation” in [7]. Further, the 50% inhibitory concentration (IC50) in [6] is over 1000 nM.

Take `Cc1cn([C@H]2C=C[C@@H](CO)O2)c(=O)[nH]c1=O` [d4T, stavudine]: the “effect on susceptibility (words)” value was “did not reduce d4T susceptibility” in assay [2]; “did not alter d4T susceptibility; also recorded: did not reduce d4T susceptibility; also recorded: had no affect on d4T susceptibility” in assay [3]; “no effect on d4t-susceptibility” in assay [3] (listed as d4t); “reduced susceptibility to d4T and AZT” in assay [4]; “decreased susceptibility to d4T” in [5]; “no differences in their susceptibility to d4T; also recorded: had no effect on d4T; also recorded: had no affect on d4T susceptibility” in assay [7]. For the same molecule, in assay [2] (RTV with V75V vs control RTV), the “fold reduction in susceptibility” value is “less than two-fold”. Also, the “cross-resistance of isolates with substitutions at codons 62, 75, 77, 116 and 115” value in assay [1] (patients on prolonged ZDV plus ddI or ddC) is listed as “cross-resistance”. Further, the “cross-resistance of ZDV-resistant strains” value in assay [8] was “Cross-resistance”. The “effect of reversion of the T69SSA mutation” value in assay [9] is on record as “reduced d4T resistance”.

As for `Nc1ccn([C@H]2CC[C@@H](CO)O2)c(=O)n1` [ddC, zalcitabine], the “fold reduction in sensitivity” value in [10] is recorded as “around ten-fold”. For the same molecule, the “fold increase in IC50 / reduction in susceptibility” value in [11] is recorded as “five-fold to ten-fold”. Moreover, the “cross-resistance of ZDV-resistant strains” value in [8] is reported as “no evidence that mutations selected for during ZDV monotherapy influence sensitivity”. The “fold reduction in susceptibility for each ten-fold decrease in ZDV sensitivity” value in the assay with HIV clinical isolates is “two-fold”.

Turning to `O=c1[nH]cnc2c1ncn2[C@H]1CC[C@@H](CO)O1` [ddI, didanosine], the “fold increase in IC50 / reduction in susceptibility” value in assay [11] was “three-fold to five-fold”. The “cross-resistance of ZDV-resistant strains” value in [8] is recorded as “no evidence that mutations selected for during ZDV monotherapy influence sensitivity”. The “fold reduction in susceptibility for each ten-fold decrease in ZDV sensitivity” value in the assay with HIV clinical isolates is recorded as 2.2 fold.
